Activity calls are given as the source filed them. The rule behind the calls is not given here.
How the values were obtained:
[1] = target: Glycogen synthase kinase-3 beta (Homo sapiens, UniProt P49841); test: Inhibition of recombinant human GSK-3beta using YRRAAVPPSPSLSRHSSPHQ(pS)EDEE as substrate preincubated for 15 mins followed by substrate addition and measured after 60 mins by Kinase-Glo luminescent kinase assay
[2] = system: PC-12; test: Neuroprotective activity against H2O2-induced cytotoxicity in rat PC12 cells assessed as increase in cell viability at 10 uM preincubated for 12 hrs followed by replacement with fresh media and H2O2 stimulation for 12 hrs by MTT assay; format: functional, cell-based

Glycogen synthase kinase-3 beta, sequence (P49841 whole entry): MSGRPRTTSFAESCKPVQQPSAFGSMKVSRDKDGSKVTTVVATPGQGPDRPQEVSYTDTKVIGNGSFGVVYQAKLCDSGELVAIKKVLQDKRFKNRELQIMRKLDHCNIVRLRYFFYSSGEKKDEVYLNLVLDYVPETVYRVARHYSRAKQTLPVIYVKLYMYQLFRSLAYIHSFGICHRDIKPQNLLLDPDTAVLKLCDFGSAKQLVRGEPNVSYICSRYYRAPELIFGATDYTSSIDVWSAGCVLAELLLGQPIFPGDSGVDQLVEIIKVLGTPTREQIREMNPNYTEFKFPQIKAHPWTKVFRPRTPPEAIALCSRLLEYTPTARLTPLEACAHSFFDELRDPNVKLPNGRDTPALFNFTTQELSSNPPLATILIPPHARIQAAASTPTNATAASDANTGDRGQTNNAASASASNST

Compound | IC50 [1] [pM] | Activity [2]
COc1ccc(-c2ocnc2C(=O)NCCCNC(=O)CCc2cc(C(C)(C)C)c(O)c(C(C)(C)C)c2)cc1F | > 1000 | –
COc1ccc(-c2ocnc2C(=O)NCCCNC(=O)/C=C/c2cc(C(C)(C)C)c(O)c(C(C)(C)C)c2)cc1Cl | 410 | –
COc1ccc(-c2ocnc2C(=O)NCCCCNC(=O)CCc2cc(C(C)(C)C)c(O)c(C(C)(C)C)c2)cc1F | 780 | Active
COc1ccc(-c2ocnc2C(=O)NCCCc2ccc(NC(=O)c3cc(C(C)(C)C)c(O)c(C(C)(C)C)c3)cc2)cc1Cl | 920 | Active
COc1ccc(-c2ocnc2C(=O)NCCCn2cc(CNC(=O)CCc3cc(C(C)(C)C)c(O)c(C(C)(C)C)c3)nn2)cc1I | 810 | –
COc1ccc(-c2ocnc2C(=O)NCCCNC(=O)c2cc(C(C)(C)C)c(O)c(C(C)(C)C)c2)cc1I | 480 | –
COc1ccc(-c2ocnc2C(=O)NCCCNC(=O)/C=C/c2cc(C(C)(C)C)c(O)c(C(C)(C)C)c2)cc1I | > 1000 | –
COc1ccc(-c2ocnc2C(=O)NCCCCNC(=O)c2cc(C(C)(C)C)c(O)c(C(C)(C)C)c2)cc1F | 620 | Active
COc1ccc(-c2ocnc2C(=O)NCCCNC(=O)c2cc(C(C)(C)C)c(O)c(C(C)(C)C)c2)cc1F | > 1000 | –
COc1ccc(-c2ocnc2C(=O)NCCCNC(=O)c2cc(C(C)(C)C)c(O)c(C(C)(C)C)c2)cc1Cl | > 1000 | –
COc1ccc(-c2ocnc2C(=O)NCCCn2cc(CNC(=O)c3cc(C(C)(C)C)c(O)c(C(C)(C)C)c3)nn2)cc1I | 310 | –
COc1c(F)cc(-c2ocnc2C(=O)NCCCNC(=O)c2cc(C(C)(C)C)c(O)c(C(C)(C)C)c2)cc1F | 960 | –
COc1ccc(-c2ocnc2C(=O)NCCCn2cc(CNC(=O)c3cc(C(C)(C)C)c(O)c(C(C)(C)C)c3)nn2)cc1Cl | > 1000 | –
COc1c(F)cc(-c2ocnc2C(=O)NCCCc2ccc(NC(=O)/C=C/c3cc(C(C)(C)C)c(O)c(C(C)(C)C)c3)cc2)cc1F | 950 | Active
COc1ccc(-c2ocnc2C(=O)NCCCc2ccc(NC(=O)CCc3cc(C(C)(C)C)c(O)c(C(C)(C)C)c3)cc2)cc1Cl | > 1000 | –
COc1ccc(-c2ocnc2C(=O)NCCCNC(=O)CCc2cc(C(C)(C)C)c(O)c(C(C)(C)C)c2)cc1I | > 1000 | –
COc1ccc(-c2ocnc2C(=O)NCCCn2cc(CNC(=O)CCc3cc(C(C)(C)C)c(O)c(C(C)(C)C)c3)nn2)cc1Cl | 270 | –
COc1ccc(-c2ocnc2C(=O)NCCCc2ccc(NC(=O)/C=C/c3cc(C(C)(C)C)c(O)c(C(C)(C)C)c3)cc2)cc1F | > 1000 | –
COc1ccc(-c2ocnc2C(=O)NCCCn2cc(CNC(=O)/C=C/c3cc(C(C)(C)C)c(O)c(C(C)(C)C)c3)nn2)cc1I | 330 | –
COc1ccc(-c2ocnc2C(=O)NCCCCNC(=O)CCc2cc(C(C)(C)C)c(O)c(C(C)(C)C)c2)cc1Cl | 840 | Active
COc1ccc(-c2ocnc2C(=O)NCCCNC(=O)CCc2cc(C(C)(C)C)c(O)c(C(C)(C)C)c2)cc1Cl | > 1000 | –
COc1ccc(-c2ocnc2C(=O)NCCCn2cc(CNC(=O)/C=C/c3cc(C(C)(C)C)c(O)c(C(C)(C)C)c3)nn2)cc1Cl | 760 | –
COc1c(F)cc(-c2ocnc2C(=O)NCCCNC(=O)CCc2cc(C(C)(C)C)c(O)c(C(C)(C)C)c2)cc1F | > 1000 | –
COC(=O)[C@@]12OC[C@]34[C@H]([C@@H](O)[C@@H]1O)[C@@]1(C)CC(=O)C(O)=C(C)[C@@H]1C[C@H]3OC(=O)[C@H](OC(=O)C=C(C)C)[C@@H]24 | – | inactive
COc1ccc(-c2ocnc2C(=O)NCCCCNC(=O)c2cc(C(C)(C)C)c(O)c(C(C)(C)C)c2)cc1Cl | 810 | Active

— ChEMBL document CHEMBL5370539, “Oxazole-4-carboxamide/butylated hydroxytoluene hybrids with GSK-3β inhibitory and neuroprotective activities against Alzheimer's disease” (Eur J Med Chem, 2023)
